Laboratory results as given in US20100173835A1, “Peptides for Treatment of Obesity” (Novo Nordisk A/S, priority 2008, published 2010).
Values after ≈ are worked out from the molar mass of the structure shown. Read-outs that look alike come from different tables or passages of the source. Each block holds one compound with its values, some of them ahead of it. Where a SMILES comes first, the peptide text is derived from it. Bridges are numbered along the chain shown (N, C = ends). [ ]: non-standard residue; d: D form. The star is where a group is joined. Palmitoyl(16-(5-tetrazolyl)) = O=C(CCCCCCCCCCCCCCCc1nnn[nH]1)*; Lys(CH2CO2H)2 = N[C@@H](CCCCN(CC(=O)O)CC(=O)O)C(=O)O; C16 diacid = O=C(O)CCCCCCCCCCCCCCC(=O)*; Hyp = O=C(O)[C@@H]1C[C@@H](O)CN1; NTA = O=C(O)CN(CC(=O)O)CC(=O)*; Nle = CCCC[C@H](N)C(=O)O; Dap = NC[C@H](N)C(=O)O; AEEA = NCCOCCOCC(=O)O

Assays:
[1] = Solubility data of compounds in water over the pH range; assay type: physicochemical
human MC4 receptor = biological target: T1, human MC4 receptor (Homo sapiens, UniProt P32245); experiment: Assay (V) Melanocortin Receptor 4 (MC4) binding assay; settings: 125NDP-α-MSH binding, BHK cell membranes
T1 construct: expressed in transfected cells
Method: Assay (V)—Melanocortin Receptor 4 (MC4) Binding Assay
In vitro ^125NDP-α-MSH binding to recombinant BHK cells expressing human MC4 receptor (filtration assay).
The assay is performed in 5 ml minisorb vials (Sarstedt No. 55.526) or in 96-well filterplates (Millipore MADVN 6550), and using BHK cells expressing the human MC4 receptor using BHK cells stably expressing the human MC4 receptor. The membranes were prepared from frozen or fresh cells that were homogenized in 20 mM HEPES pH 7.1, 5 mM MgCl2 and 1 mg/ml bacitracin and centrifuged at 15000 rpm at 4° C., 10 min in a Sorvall RC 5B plus, SS-34 rotor. The supernatant was discarded, and the pellets were re-suspended in buffer, homogenized and centrifuged two more times. The final pellets were resuspended in the buffer mentioned above, and the protein concentration was measured and adjusted with buffer to 14 to 17 mg/ml and the membrane preparation were kept at −80° C. until assay. The assay was run directly on a dilution of this cell membrane suspension, without any further preparation. The BHK cell membranes are kept at −80° C. until assay, and the assay is run directly on a dilution of this cell membrane suspension, without further preparation. The suspension is diluted to give maximally 10% specific binding, i.e. to approx. 50-100 fold dilution. The assay is performed in a total volume of 200 μl: 50 μl of cell suspension, 50 μl of ^125NDP-α-MSH (≈79 pM in final concentration), 50 μl of test compound and 50 μl binding buffer (pH 7) mixed and incubated for 2 h at 25° C. [binding buffer: 25 mM HEPES, pH 7.0, 1 mM CaCl2, 1 mM MgSO4, 1 mM EGTA, 0.02% Bacitracin, 0.005% Tween™ 20 and 0.1% HSA or, alternatively, 0.1% ovalbumin (Sigma; catalogue No. A-5503)]. Test compounds are dissolved in DMSO and diluted in binding buffer. Radiolabelled ligand and membranes are diluted in binding buffer. The incubation is stopped by dilution with 2×100 μl ice-cold 0.9% NaCl. The radioactivity retained on the filters is counted using a Cobra II auto gamma counter.
(§1) The data are analysed by non-linear regression analysis of binding curves, using the Windows™ program GraphPad™ Prism (GraphPad Software, USA).

MC1 receptor = biological target: T2, MC1 receptor (Homo sapiens, UniProt Q01726); experiment: Assay (IV) Melanocortin Receptor 1 (MC1) binding assay
T2 construct: expressed in transfected cells
Method: Assay (IV)—Melanocortin Receptor 1 (MC1) Binding Assay
The MC1 receptor binding assay is performed on BHK cell membranes stably expressing the MC1 receptor. The assay is performed in a total volume of 250 NI: 25 μl of ^125NDP-α-MSH (22 pM in final concentration), 25 μl of test compound/control and 200 μl of cell membrane (25 μg/ml). Test compounds are dissolved in DMSO. Radioactively labeled ligand, membranes and test compounds are diluted in buffer: 25 mM HEPES, pH 7.4, 0.1 mM CaCl2, 1 mM MgSO4, 1 mM EDTA, 0.1% HSA and 0.005% Tween™ 20. Alternatively, HSA may be substituted with ovalbumin. The samples are incubated at 30° C. for 90 min. in Costar round-bottom microtiter plates. Incubation is terminated by filtration on a Packard harvester filtermate. Rapid filtration through Packard Unifilter-96 GF/B filters pre-treated with polyethylenimine (PerkinElmer 6005277). The filters are washed with ice-cold 0.9% NaCl 8-10 times. The plates is air dried at app. 55° C. for 30 min, and 50 μl Microscint 0 (Packard, cat. No. 6013616) is added to each well. The plates are counted in a Topcounter (1 min/well).
as §1

[2] = 125NDP-α-MSH binding, BHK cell membranes, read-out: Assay (IV) MC1 Ki

T1 sequence (P32245 whole entry): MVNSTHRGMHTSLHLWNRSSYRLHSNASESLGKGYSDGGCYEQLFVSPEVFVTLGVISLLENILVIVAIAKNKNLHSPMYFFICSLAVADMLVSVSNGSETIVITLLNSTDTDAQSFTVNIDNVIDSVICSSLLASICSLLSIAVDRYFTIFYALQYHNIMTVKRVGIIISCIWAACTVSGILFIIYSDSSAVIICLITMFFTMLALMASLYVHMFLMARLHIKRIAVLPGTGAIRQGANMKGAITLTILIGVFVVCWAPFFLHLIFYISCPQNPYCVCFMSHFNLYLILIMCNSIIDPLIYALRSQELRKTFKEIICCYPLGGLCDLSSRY
T2 sequence (Q01726 whole entry): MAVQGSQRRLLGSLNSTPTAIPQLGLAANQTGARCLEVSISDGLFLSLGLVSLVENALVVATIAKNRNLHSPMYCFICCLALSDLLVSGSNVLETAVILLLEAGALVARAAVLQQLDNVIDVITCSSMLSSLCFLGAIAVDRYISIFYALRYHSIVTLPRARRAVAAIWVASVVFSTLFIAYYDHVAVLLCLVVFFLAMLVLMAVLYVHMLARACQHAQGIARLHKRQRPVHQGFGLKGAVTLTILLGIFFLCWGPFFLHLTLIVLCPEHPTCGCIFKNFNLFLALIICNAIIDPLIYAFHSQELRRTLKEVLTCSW

SMILES: CCCC[C@H](NC(=O)[C@H](CCCCN(CC(=O)O)CC(=O)O)NC(=O)[C@H](Cc1c[nH]cn1)NC(=O)[C@H](CCC(N)=O)NC(=O)[C@H](CO)NC(=O)[C@H](CO)NC(=O)[C@H](CCC(N)=O)NC(=O)[C@@H](CO)NC(=O)CNC(=O)COCCOCCNC(=O)COCCOCCNC(=O)CCCCCCCCCCCCCCCc1nnn[nH]1)C(=O)N[C@H]1CCC(=O)NCCCC[C@@H](C(N)=O)NC(=O)[C@H](Cc2c[nH]c3ccccc23)NC(=O)[C@H](CCCNC(=N)N)NC(=O)[C@@H](Cc2ccccc2)NC(=O)[C@@H]2C[C@@H](O)CN2C1=O [Example 3, (2-{2-[2-(2-{2-[16-(Tetrazol-5-yl)hexadecanoylamino]ethoxy}ethoxy)acetylamino]ethoxy}ethoxy)acetyl-Gly-D-Ser-Gln-Ser-Ser-Gln-His-Lys(biscarboxymethyl)-Nle-c[Glu-Hyp-D-Phe-Arg-Trp-Lys]-NH2] ({Palmitoyl(16-(5-tetrazolyl))-AEEA-AEEA}-G[dS]QSSQH[Lys(CH2CO2H)2][Nle]E[Hyp][dF]RWK-NH2; lactam 10-15)
- solubility at 3 days ([1]; pH 2.95, pH 2.95, read-out: Conc (solubility in water)): 435 µM (≈ 1100 µg/mL)
- solubility at 3 days ([1]; pH 3.88, pH 3.88, read-out: Conc (solubility in water)): 570 µM (≈ 1440 µg/mL)
- solubility at 3 days ([1]; pH 4.82, pH 4.82, read-out: Conc (solubility in water)): 429 µM (≈ 1080 µg/mL)
- solubility at 3 days ([1]; pH 4.84, pH 4.84, read-out: Conc (solubility in water)): 324 µM (≈ 818 µg/mL)
- solubility at 3 days ([1]; pH 5.18, pH 5.18, read-out: Conc (solubility in water)): 75 µM (≈ 189 µg/mL)
- solubility at 3 days ([1]; pH 6.1, pH 6.10, read-out: Conc (solubility in water)): 39 µM (≈ 98.5 µg/mL)
- solubility at 3 days ([1]; pH 6.95, pH 6.95, read-out: Conc (solubility in water)): 87 µM (≈ 220 µg/mL)
- solubility at 3 days ([1]; pH 7.15, pH 7.15, read-out: Conc (solubility in water)): 190 µM (≈ 480 µg/mL)
- solubility at 3 days ([1]; pH 7.24, pH 7.24, read-out: Conc (solubility in water)): 256 µM (≈ 646 µg/mL)
- solubility at 3 days ([1]; pH 7.29, pH 7.29, read-out: Conc (solubility in water)): 316 µM (≈ 798 µg/mL)
- Ki (human MC4 receptor; Assay (V) MC4 [Ki] (nM)): 1.95 nM
- Ki (MC1 receptor): > 10000 nM

SMILES: CCCC[C@H](NC(=O)[C@H](CNC(=O)CN(CC(=O)O)CC(=O)O)NC(=O)[C@H](Cc1c[nH]cn1)NC(=O)[C@H](CCC(N)=O)NC(=O)[C@H](CO)NC(=O)[C@H](CCC(=O)O)NC(=O)COCCOCCNC(=O)CCCCCCCCCCCCCCCc1nnn[nH]1)C(=O)N[C@H]1CCC(=O)NCCCC[C@@H](C(N)=O)NC(=O)[C@H](Cc2c[nH]c3ccccc23)NC(=O)[C@H](CCCNC(=N)N)NC(=O)[C@@H](Cc2ccccc2)NC(=O)[C@@H]2C[C@@H](O)CN2C1=O [Example 17, (2-{2-[16-(Tetrazol-5-yl)hexadecanoylamino]ethoxy}ethoxy)acetyl-Glu-Ser-Gln-His-Dap(BCMA)-Nle-c[Glu-Hyp-D-Phe-Arg-Trp-Lys]-NH2] ({Palmitoyl(16-(5-tetrazolyl))-AEEA}-ESQH[Dap](NTA)[Nle]E[Hyp][dF]RWK-NH2; lactam 7-12)
- solubility at 3 days ([1]; pH 3.32, pH 3.32, read-out: Conc (solubility in water)): 34 µM (≈ 73.6 µg/mL)
- solubility at 3 days ([1]; pH 3.76, pH 3.76, read-out: Conc (solubility in water)): 25 µM (≈ 54.1 µg/mL)
- solubility at 3 days ([1]; pH 4.31, pH 4.31, read-out: Conc (solubility in water)): 20 µM (≈ 43.3 µg/mL)
- solubility at 3 days ([1]; pH 4.56, pH 4.56, read-out: Conc (solubility in water)): 20 µM (≈ 43.3 µg/mL)
- solubility at 3 days ([1]; pH 4.94, pH 4.94, read-out: Conc (solubility in water)): 23 µM (≈ 49.8 µg/mL)
- solubility at 3 days ([1]; pH 5.55, pH 5.55, read-out: Conc (solubility in water)): 39 µM (≈ 84.4 µg/mL)
- solubility at 3 days ([1]; pH 6.04, pH 6.04, read-out: Conc (solubility in water)): 127 µM (≈ 275 µg/mL)
- solubility at 3 days ([1]; pH 6.34, pH 6.34, read-out: Conc (solubility in water)): 226 µM (≈ 489 µg/mL)
- solubility at 3 days ([1]; pH 6.89, pH 6.89, read-out: Conc (solubility in water)): 303 µM (≈ 656 µg/mL)
- solubility at 3 days ([1]; pH 7.62, pH 7.62, read-out: Conc (solubility in water)): 351 µM (≈ 760 µg/mL)
- Ki (human MC4 receptor; read-out: Assay (V) MC4 [Ki]): 5.4 nM
- Ki (MC1 receptor; [2]): > 10000 nM

- solubility at 3 days ([1]; pH 3.18): 531 µM (≈ 1340 µg/mL)
- solubility at 3 days ([1]; pH 4.32): 515 µM (≈ 1300 µg/mL)
- solubility at 3 days ([1]; pH 4.67): 492 µM (≈ 1240 µg/mL)
- solubility at 3 days ([1]; pH 4.89): 450 µM (≈ 1140 µg/mL)
- solubility at 3 days ([1]; pH 4.98): 347 µM (≈ 877 µg/mL)
- solubility at 3 days ([1]; pH 5.75): 41 µM (≈ 104 µg/mL)
- solubility at 3 days ([1]; pH 6.37): 51 µM (≈ 129 µg/mL)
- solubility at 3 days ([1]; pH 6.66): 93 µM (≈ 235 µg/mL)
- solubility at 3 days ([1]; pH 7.3): 454 µM (≈ 1150 µg/mL)
- solubility at 3 days ([1]; pH 7.66): 596 µM (≈ 1510 µg/mL)
- Ki (human MC4 receptor; read-out: Assay (V) MC4 [Ki]): 2.75 nM
- Ki (MC1 receptor; [2]): > 10000 nM
SMILES: CCCC[C@H](NC(=O)[C@H](CNC(=O)CN(CC(=O)O)CC(=O)O)NC(=O)[C@H](Cc1c[nH]cn1)NC(=O)[C@H](CCC(N)=O)NC(=O)[C@H](CO)NC(=O)CNC(=O)COCCOCCNC(=O)COCCOCCNC(=O)COCCOCCNC(=O)COCCOCCNC(=O)CCCCCCCCCCCCCCCc1nnn[nH]1)C(=O)N[C@H]1CCC(=O)NCCCC[C@@H](C(N)=O)NC(=O)[C@H](Cc2c[nH]c3ccccc23)NC(=O)[C@H](CCCNC(=N)N)NC(=O)[C@@H](Cc2ccccc2)NC(=O)[C@@H]2C[C@@H](O)CN2C1=O [Example 16, (2-{2-[2-(2-{2-[2-(2-{2-[2-(2-{2-[16-(Tetrazol-5-yl)hexadecanoylamino]ethoxy}ethoxy)acetylamino]ethoxy}ethoxy)acetylamino]ethoxy}ethoxy)acetylamino]ethoxy}ethoxy)acetyl-Gly-Ser-Gln-His-Dap(BCMA)-Nle-c[Glu-Hyp-D-Phe-Arg-Trp-Lys]-NH2] ({Palmitoyl(16-(5-tetrazolyl))-AEEA-AEEA-AEEA-AEEA}-GSQH[Dap](NTA)[Nle]E[Hyp][dF]RWK-NH2; lactam 7-12)

- solubility at 3 days ([1]; pH 4.04): 26 µM (≈ 53.2 µg/mL)
- solubility at 3 days ([1]; pH 4.34): 32 µM (≈ 65.5 µg/mL)
- solubility at 3 days ([1]; pH 4.74): 40 µM (≈ 81.9 µg/mL)
- solubility at 3 days ([1]; pH 5.21): 58 µM (≈ 119 µg/mL)
- solubility at 3 days ([1]; pH 5.67): 103 µM (≈ 211 µg/mL)
- solubility at 3 days ([1]; pH 6.26): 108 µM (≈ 221 µg/mL)
- solubility at 3 days ([1]; pH 6.29): 106 µM (≈ 217 µg/mL)
- solubility at 3 days ([1]; pH 6.87): 117 µM (≈ 239 µg/mL)
- solubility at 3 days ([1]; pH 7.6): 116 µM (≈ 237 µg/mL)
- solubility at 3 days ([1]; pH 7.61): 107 µM (≈ 219 µg/mL)
- Ki (human MC4 receptor; read-out: Assay (V) MC4 [Ki]): 14.7 nM
- Ki (MC1 receptor; [2]): > 10000 nM
SMILES: CCCC[C@H](NC(=O)[C@H](CCCCNC(=O)CN(CC(=O)O)CC(=O)O)NC(=O)[C@H](CO)NC(=O)[C@H](CCC(N)=O)NC(=O)[C@H](CO)NC(=O)CNC(=O)COCCOCCNC(=O)CCCCCCCCCCCCCCC(=O)O)C(=O)N[C@H]1CCC(=O)NCCCC[C@@H](C(N)=O)NC(=O)[C@H](Cc2c[nH]c3ccccc23)NC(=O)[C@H](CCCNC(=N)N)NC(=O)[C@@H](Cc2ccccc2)NC(=O)[C@@H]2C[C@@H](O)CN2C1=O [Example 21, {2-[2-(15-Carboxypentadecanoylamino)ethoxy]ethoxy}acetyl-Gly-Ser-Gln-Ser-Lys(BCMA)-Nle-c[Glu-Hyp-D-Phe-Arg-Trp-Lys]-NH2] ({C16 diacid-AEEA}-GSQSK(NTA)[Nle]E[Hyp][dF]RWK-NH2; lactam 7-12)
